Experiment [1] relates to Streptomyces coelicolor. Briefly: Antimicrobial activity against paromomycin-resistant Streptomyces coelicolor SP1 harboring rpsL A262G and C271T mutant gene after 48 hrs. Format: functional.
Experiment [2] relates to Streptomyces coelicolor. Briefly: Antimicrobial activity against paromomycin-resistant Streptomyces coelicolor SP2 harboring rpsL K88E mutant gene and inserted glycine at position 92 of the gene after 48 hrs. Format: functional.
Experiment [3] concerns Streptomyces coelicolor. Briefly: Antimicrobial activity against streptomycin-resistant Streptomyces coelicolor KO-178 harboring rpsL K88E mutant gene after 48 hrs. Format: functional.
Experiment [4] relates to Streptomyces coelicolor. Briefly: Antimicrobial activity against paromomycin-resistant Streptomyces coelicolor KO-347 harboring rpsl P91S mutant gene after 48 hrs. Format: functional.
The test system of experiment [5] is Streptomyces coelicolor. Kind of experiment: Antimicrobial activity against paromomycin-resistant Streptomyces coelicolor 92G harboring rpsL gene with inserted glycine at position 92 after 48 hrs. Format: functional.
Experiment [6] concerns Streptomyces coelicolor. Kind of experiment: Antimicrobial activity against Streptomyces coelicolor 1147 after 48 hrs. Format: functional.
For experiment [7], the system named is Streptomyces coelicolor. Briefly: Binding affinity to Streptomyces coelicolor KO-178 30S ribosomal protein S12 K88E mutant assessed as inhibition of protein synthesis at 0.2 ug/ml by fluorescence assay.
In experiment [8] the test system is Streptomyces coelicolor. Kind of experiment: Binding affinity to Streptomyces coelicolor KO-347 30S ribosomal ptotein S12 GI92 mutant assessed as inhibition of protein synthesis at 0.2 ug/ml by fluorescence assay.
Experiment [9] addresses T1, Small ribosomal subunit protein uS12 (Streptomyces coelicolor (strain ATCC BAA-471 / A3(2) / M145)) (UniProt P0A4A3).
T1 sequence (whole entry): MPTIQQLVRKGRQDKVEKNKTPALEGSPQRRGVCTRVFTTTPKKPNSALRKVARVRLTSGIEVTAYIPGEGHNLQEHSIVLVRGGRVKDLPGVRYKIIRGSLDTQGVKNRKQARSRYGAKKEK
Kind of experiment: Binding affinity to Streptomyces coelicolor 1147 30S ribosomal protein S12 assessed as inhibition of protein synthesis at 0.2 ug/ml by fluorescence assay.

Setting [10] is: Streptomyces coelicolor, 1147, 48 h.

The source of these data is ChEMBL document CHEMBL1629651, “A novel insertion mutation in Streptomyces coelicolor ribosomal S12 protein results in paromomycin resistance and antibiotic overproduction” (2009).

In brackets after ≈: the same amount, converted by molar mass. Activity calls are given as the source filed them.

By MIC is commonly meant the smallest concentration in the dilution series that meets the test's criterion for growth inhibition. A high value points to a less susceptible organism. On to `CN[C@@H]1[C@@H](O)[C@@H](O[C@@H]2[C@@H](O)[C@H](O[C@H]3O[C@H]([C@@H](C)O)[C@@H](O)[C@H](O)[C@H]3N)[C@@H](N)C[C@H]2N)OC[C@]1(C)O` [GENETICIN], for which the MIC was determined as 0.5 µg/mL (≈ 1.01 µM) against Streptomyces coelicolor [1] (SP1, 48 h); 0.5 µg/mL (≈ 1.01 µM) against Streptomyces coelicolor [2] (SP2, 48 h); 0.3 µg/mL (≈ 0.604 µM) against Streptomyces coelicolor [3] (KO-178, 48 h); 0.3 µg/mL (≈ 0.604 µM) against Streptomyces coelicolor [4] (KO-347, 48 h); 1 µg/mL (≈ 2.01 µM) with Streptomyces coelicolor [5]; 0.3 µg/mL (≈ 0.604 µM) against Streptomyces coelicolor [6] (setting [10]).

Take `CC(=O)O[C@H]1C[C@@]2(C)[C@@H](C[C@@H](O)[C@H]3[C@@]4(C)CC[C@@H](O)[C@@H](C)[C@@H]4CC[C@@]32C)/C1=C(\CCC=C(C)C)C(=O)O` [FUSIDIC ACID]: the MIC came to 20 µg/mL (≈ 38.7 µM) with Streptomyces coelicolor [1] (SP1, 48 h); 20 µg/mL (≈ 38.7 µM) against Streptomyces coelicolor [2] (SP2, 48 h); 50 µg/mL (≈ 96.8 µM) in the experiment on Streptomyces coelicolor [3] (KO-178, 48 h); 50 µg/mL (≈ 96.8 µM) with Streptomyces coelicolor [4] (KO-347, 48 h); 50 µg/mL (≈ 96.8 µM) against Streptomyces coelicolor [5]; 50 µg/mL (≈ 96.8 µM) in the experiment on Streptomyces coelicolor [6] (setting [10]).

Consider `NC[C@@H]1O[C@H](O[C@H]2[C@@H](O)[C@H](O[C@@H]3[C@@H](O)[C@H](N)C[C@H](N)[C@H]3O[C@H]3O[C@H](CN)[C@@H](O)[C@H](O)[C@H]3N)O[C@@H]2CO)[C@H](N)[C@@H](O)[C@@H]1O` [FRAMYCETIN], for which the MIC with Streptomyces coelicolor [1] (SP1, 48 h) came to 0.2 µg/mL (≈ 0.325 µM); against Streptomyces coelicolor [2] (SP2, 48 h), 0.2 µg/mL (≈ 0.325 µM); in the experiment with Streptomyces coelicolor [3] (KO-178, 48 h) it was 0.8 µg/mL (≈ 1.3 µM); against Streptomyces coelicolor [4] (KO-347, 48 h), 0.5 µg/mL (≈ 0.813 µM); against Streptomyces coelicolor [5] it was 0.5 µg/mL (≈ 0.813 µM); against Streptomyces coelicolor [6] (setting [10]) it was 0.3 µg/mL (≈ 0.488 µM).

`CCC[C@@H]1C[C@@H](C(=O)N[C@@H]([C@H]2O[C@H](SC)[C@H](O)[C@@H](O)[C@H]2O)[C@@H](C)O)N(C)C1` [LINCOMYCIN]: the minimum inhibitory concentration (MIC) against Streptomyces coelicolor [1] (SP1, 48 h) is 40 µg/mL (≈ 98.4 µM); in the experiment on Streptomyces coelicolor [2] (SP2, 48 h), 10 µg/mL (≈ 24.6 µM); in the experiment with Streptomyces coelicolor [3] (KO-178, 48 h), 40 µg/mL (≈ 98.4 µM); against Streptomyces coelicolor [4] (KO-347, 48 h), 50 µg/mL (≈ 123 µM); with Streptomyces coelicolor [5], 20 µg/mL (≈ 49.2 µM); with Streptomyces coelicolor [6] (setting [10]) it was 50 µg/mL (≈ 123 µM).

By inhibition is commonly meant the drop in the measured response relative to a control, in per cent. With `NC[C@@H]1O[C@H](O[C@H]2[C@@H](O)[C@H](O[C@@H]3[C@@H](O)[C@H](N)C[C@H](N)[C@H]3O[C@H]3O[C@H](CO)[C@@H](O)[C@H](O)[C@H]3N)O[C@@H]2CO)[C@H](N)[C@@H](O)[C@@H]1O` [PAROMOMYCIN], the values for the inhibition (with Streptomyces coelicolor [7]; in experiment [9]) were > 80% and 80%, respectively. Also, the MIC against Streptomyces coelicolor [1] (SP1, 48 h) worked out at 2 µg/mL (≈ 3.25 µM); against Streptomyces coelicolor [2] (SP2, 48 h), 3 µg/mL (≈ 4.87 µM); in the experiment with Streptomyces coelicolor [3] (KO-178, 48 h), 0.3 µg/mL (≈ 0.487 µM); against Streptomyces coelicolor [4] (KO-347, 48 h), 0.8 µg/mL (≈ 1.3 µM); against Streptomyces coelicolor [5], 2 µg/mL (≈ 3.25 µM); against Streptomyces coelicolor [6] (setting [10]), 0.1 µg/mL (≈ 0.162 µM). Moreover, the inhibition entry with Streptomyces coelicolor [8] is “inactive”.

With `CN[C@@H]1[C@H](O[C@H]2[C@H](O[C@H]3[C@H](O)[C@@H](O)[C@H](N=C(N)N)[C@@H](O)[C@@H]3N=C(N)N)O[C@@H](C)[C@]2(O)C=O)O[C@@H](CO)[C@H](O)[C@H]1O` [STREPTOMYCIN], the MIC against Streptomyces coelicolor [1] (SP1, 48 h) is 200 µg/mL (≈ 344 µM); in the experiment on Streptomyces coelicolor [2] (SP2, 48 h), > 200 µg/mL; against Streptomyces coelicolor [3] (KO-178, 48 h) it was 100 µg/mL (≈ 172 µM); with Streptomyces coelicolor [4] (KO-347, 48 h), 20 µg/mL (≈ 34.4 µM); against Streptomyces coelicolor [5] it was 20 µg/mL (≈ 34.4 µM); against Streptomyces coelicolor [6] (setting [10]), 1 µg/mL (≈ 1.72 µM).

Turning to `CN(C)[C@@H]1C(O)=C(C(N)=O)C(=O)[C@@]2(O)C(O)=C3C(=O)c4c(O)cccc4[C@@](C)(O)[C@H]3C[C@@H]12` [TETRACYCLINE], the MIC with Streptomyces coelicolor [1] (SP1, 48 h) was 3 µg/mL (≈ 6.75 µM); against Streptomyces coelicolor [2] (SP2, 48 h), 3 µg/mL (≈ 6.75 µM); in the experiment with Streptomyces coelicolor [3] (KO-178, 48 h) it was 10 µg/mL (≈ 22.5 µM); in the experiment on Streptomyces coelicolor [4] (KO-347, 48 h) it was 5 µg/mL (≈ 11.3 µM); in the experiment with Streptomyces coelicolor [5], 10 µg/mL (≈ 22.5 µM); in the experiment on Streptomyces coelicolor [6] (setting [10]), 10 µg/mL (≈ 22.5 µM).

With `NC[C@H]1O[C@H](O[C@H]2[C@H](O)[C@@H](O[C@H]3O[C@H](CO)[C@@H](O)[C@H](N)[C@H]3O)[C@H](N)C[C@@H]2N)[C@H](O)[C@@H](O)[C@@H]1O` [KANAMYCIN], the MIC in the experiment with Streptomyces coelicolor [1] (SP1, 48 h) was 0.5 µg/mL (≈ 1.03 µM); against Streptomyces coelicolor [2] (SP2, 48 h), 0.5 µg/mL (≈ 1.03 µM); in the experiment on Streptomyces coelicolor [3] (KO-178, 48 h) it was 0.8 µg/mL (≈ 1.65 µM); in the experiment with Streptomyces coelicolor [4] (KO-347, 48 h), 0.5 µg/mL (≈ 1.03 µM); against Streptomyces coelicolor [5] it was 1 µg/mL (≈ 2.06 µM); in the experiment with Streptomyces coelicolor [6] (setting [10]), 0.8 µg/mL (≈ 1.65 µM).

For GENTAMICIN, the MIC against Streptomyces coelicolor [1] was determined as 0.5 µg/mL; with Streptomyces coelicolor [2] it was 0.5 µg/mL; against Streptomyces coelicolor [3], 0.1 µg/mL; with Streptomyces coelicolor [4], 0.5 µg/mL; against Streptomyces coelicolor [5], 0.5 µg/mL; with Streptomyces coelicolor [6], 0.1 µg/mL.
